According to patent US20210100760A1 (Strongbridge Dublin Limited, priority 2019, published 2021):
Like-named read-outs stand apart in the source and are kept apart here.

Tests used:
OAT1 = target: T1, OAT1 (Homo sapiens, UniProt Q4U2R8); assay: OAT1 substrate determination in HEK293 cells; assay type: in vitro ADME; settings: for Uptake ratio: OAT1 vs control cells; for Uptake (Average ± SD), OAT1: OAT1-expressing HEK293 cells; for recovery at 10 μM: human
T1 sequence (Q4U2R8 1-563): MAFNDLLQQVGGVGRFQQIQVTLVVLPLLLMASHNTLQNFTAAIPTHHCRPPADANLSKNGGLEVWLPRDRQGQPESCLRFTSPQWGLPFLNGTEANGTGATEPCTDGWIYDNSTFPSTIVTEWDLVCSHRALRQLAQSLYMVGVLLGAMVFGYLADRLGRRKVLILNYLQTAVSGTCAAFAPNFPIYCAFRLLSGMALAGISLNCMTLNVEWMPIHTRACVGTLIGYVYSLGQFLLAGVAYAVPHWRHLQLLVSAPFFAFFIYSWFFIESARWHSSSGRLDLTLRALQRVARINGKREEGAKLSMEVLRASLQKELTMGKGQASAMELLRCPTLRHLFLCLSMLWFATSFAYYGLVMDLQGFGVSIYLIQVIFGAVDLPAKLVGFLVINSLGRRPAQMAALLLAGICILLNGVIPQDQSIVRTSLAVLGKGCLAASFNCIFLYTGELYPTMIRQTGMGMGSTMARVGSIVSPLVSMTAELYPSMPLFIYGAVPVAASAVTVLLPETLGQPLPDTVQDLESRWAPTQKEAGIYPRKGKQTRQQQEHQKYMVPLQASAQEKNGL

OAT3 [1] = target: T2, OAT3 (Homo sapiens, UniProt Q8TCC7); assay: OAT3 substrate determination in HEK293 cells; assay type: in vitro ADME; settings: for Uptake ratio: OAT3 vs control cells; for Uptake (Average ± SD), OAT3: OAT3-expressing HEK293 cells; for recovery at 10 μM: human
T2 sequence (Q8TCC7 1-542): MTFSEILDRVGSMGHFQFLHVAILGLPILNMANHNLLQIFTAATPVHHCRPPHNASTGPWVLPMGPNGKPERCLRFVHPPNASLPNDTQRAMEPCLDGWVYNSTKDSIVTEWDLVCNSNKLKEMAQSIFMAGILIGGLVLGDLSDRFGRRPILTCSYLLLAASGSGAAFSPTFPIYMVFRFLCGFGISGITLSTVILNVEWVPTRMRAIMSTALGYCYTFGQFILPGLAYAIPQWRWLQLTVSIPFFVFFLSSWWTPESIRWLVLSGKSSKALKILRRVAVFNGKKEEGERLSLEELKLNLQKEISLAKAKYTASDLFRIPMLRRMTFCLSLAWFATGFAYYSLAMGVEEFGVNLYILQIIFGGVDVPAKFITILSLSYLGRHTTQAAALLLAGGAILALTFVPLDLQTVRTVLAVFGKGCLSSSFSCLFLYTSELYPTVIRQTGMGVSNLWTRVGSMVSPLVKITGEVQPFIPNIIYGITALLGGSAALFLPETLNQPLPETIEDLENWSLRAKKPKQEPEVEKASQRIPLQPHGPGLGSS

OAT3 [2] = target: T2, OAT3; assay: OAT3 positive-control inhibition, [3H]-Estrone-3-sulfate probe substrate uptake in HEK293 cells; assay type: in vitro ADME; settings: [3H]-Estrone-3-sulfate (50 nM) probe, inhibitor 100 μM
[3] = low plasma concentrations (1.0 to 2.0 mg/100 mL); cited from earlier work
[4] = dichlorphenamide 10 μM + probenecid 100 μM, 1 min
[5] = dichlorphenamide 10 μM + probenecid 100 μM, 3 min
[6] = dichlorphenamide 10 μM + probenecid 100 μM, 10 min
[7] = dichlorphenamide 10 μM + probenecid 100 μM, control HEK293 cells, 1 min
[8] = dichlorphenamide 10 μM + probenecid 100 μM, control HEK293 cells, 3 min
[9] = dichlorphenamide 10 μM + probenecid 100 μM, control HEK293 cells, 10 min
[10] = dichlorphenamide 10 μM, incubation 1 min
[11] = dichlorphenamide 10 μM, incubation 3 min
[12] = dichlorphenamide 10 μM, incubation 10 min

NS(=O)(=O)c1cc(Cl)c(Cl)c(S(N)(=O)=O)c1 [Dichlorphenamide, 4,5-dichloro-1,3-benzenedisulfonamide]
Substrate of OAT1 (conclusion from Tables 1 and 2) (OAT1; HEK293 cells): is a substrate of OAT1 | Uptake ratio (OAT1; [4]): 1.29 | Uptake ratio (OAT1; [5]): 1.11 | Uptake ratio (OAT1; [6]): 1.01 | Uptake ratio (OAT1; dichlorphenamide 10 μM, 1 min): 2.41 | Uptake ratio (OAT1; dichlorphenamide 10 μM, 3 min): 2.39 | Uptake ratio (OAT1; dichlorphenamide 10 μM, 10 min): 2.23 | Uptake (Average ± SD), OAT1 (OAT1; [4]): 54.4 ± 2.7 pmol/mg protein | Uptake (Average ± SD), OAT1 (OAT1; [5]): 135 ± 6 pmol/mg protein | Uptake (Average ± SD), OAT1 (OAT1; [6]): 286 ± 17 pmol/mg protein | Uptake (Average ± SD), Control (OAT1; [7]): 42.2 ± 2.4 pmol/mg protein | Uptake (Average ± SD), Control (OAT1; [8]): 121 ± 8 pmol/mg protein | Uptake (Average ± SD), Control (OAT1; [9]): 284 ± 19 pmol/mg protein | Uptake (Average ± SD), OAT1 (OAT1; [10]): 109 ± 2 pmol/mg protein | Uptake (Average ± SD), OAT1 (OAT1; [11]): 294 ± 14 pmol/mg protein | Uptake (Average ± SD), OAT1 (OAT1; [12]): 591 ± 11 pmol/mg protein | Uptake (Average ± SD), Control (OAT1; dichlorphenamide 10 μM, control HEK293 cells (vector only), incubation 1 min): 45.4 ± 0.4 pmol/mg protein | Uptake (Average ± SD), Control (OAT1; dichlorphenamide 10 μM, control HEK293 cells (vector only), incubation 3 min): 123 ± 6 pmol/mg protein | Uptake (Average ± SD), Control (OAT1; dichlorphenamide 10 μM, control HEK293 cells (vector only), incubation 10 min): 265 ± 8 pmol/mg protein | recovery at 10 μM (OAT1; HEK293 cells expressing OAT1, pH 7.4, read-out: Recovery, OAT1): 98.5% | recovery at 10 μM (OAT1; control HEK293 cells (transfected with vector only), pH 7.4, read-out: Recovery, Control): 95.3% | Substrate of OAT3 (conclusion from Tables 3 and 4) (OAT3 [1]; HEK293 cells): is a substrate of OAT3 | Uptake ratio (OAT3 [1]; [4]): 0.987 | Uptake ratio (OAT3 [1]; [5]): 1.00 | Uptake ratio (OAT3 [1]; [6]): 1.24 | Uptake ratio (OAT3 [1]; dichlorphenamide 10 μM, 1 min): 2.26 | Uptake ratio (OAT3 [1]; dichlorphenamide 10 μM, 3 min): 2.64 | Uptake ratio (OAT3 [1]; dichlorphenamide 10 μM, 10 min): 2.75 | Uptake (Average ± SD), OAT3 (OAT3 [1]; [4]): 123 ± 7 pmol/mg protein | Uptake (Average ± SD), OAT3 (OAT3 [1]; [5]): 126 ± 18 pmol/mg protein | Uptake (Average ± SD), OAT3 (OAT3 [1]; [6]): 177 ± 16 pmol/mg protein | Uptake (Average ± SD), Control (OAT3 [1]; [7]): 124 ± 13 pmol/mg protein | Uptake (Average ± SD), Control (OAT3 [1]; [8]): 125 ± 5 pmol/mg protein | Uptake (Average ± SD), Control (OAT3 [1]; [9]): 143 ± 41 pmol/mg protein | Uptake (Average ± SD), OAT3 (OAT3 [1]; [10]): 333 ± 24 pmol/mg protein | Uptake (Average ± SD), OAT3 (OAT3 [1]; [11]): 311 ± 29 pmol/mg protein | Uptake (Average ± SD), OAT3 (OAT3 [1]; [12]): 463 ± 27 pmol/mg protein | Uptake (Average ± SD), Control (OAT3 [1]; dichlorphenamide 10 μM, control HEK293 cells, incubation 1 min): 147 ± 47 pmol/mg protein | Uptake (Average ± SD), Control (OAT3 [1]; dichlorphenamide 10 μM, control HEK293 cells, incubation 3 min): 118 ± 3 pmol/mg protein | Uptake (Average ± SD), Control (OAT3 [1]; dichlorphenamide 10 μM, control HEK293 cells, incubation 10 min): 169 ± 9 pmol/mg protein | recovery at 10 μM (OAT3 [1]; HEK293 cells expressing OAT3, pH 7.4, read-out: Recovery, OAT3): 77.9% | recovery at 10 μM (OAT3 [1]; control HEK293 cells, pH 7.4, read-out: Recovery, Control): 68.8%

CCCN(CCC)S(=O)(=O)c1ccc(C(=O)O)cc1 [Probenecid]
Background corrected uptake rate (OAT3 [2]): 0.0184 pmol/mg/min | Uptake (Average ± SD), OAT3 (OAT3 [2]; OAT3-expressing HEK293 cells): 0.104 ± 0.006 pmol/mg protein | Uptake (Average ± SD), Control (OAT3 [2]; control HEK293 cells): 0.0670 ± 0.0124 pmol/mg protein | activity at 100 μM (OAT3 [2]; human, HEK293 cells expressing OAT3 and control cells, pH 7.4, probe [3H]-Estrone-3-sulfate (50 nM), relative to solvent control, read-out: Percent of control): 3.2%

Nc1ccc(C(=O)NCC(=O)O)cc1 [aminohippurate, p-aminohippuric acid]
Fraction cleared by the kidneys from the renal blood stream in a single circulation (average) [3]: 90%
